Records with an inconclusive call do not appear. Activity calls are given as the source filed them.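 How the source made its calls: active means compounds whose fitted half-maximal potency is at most ten times their top valid tested dose, reducing viability; inconclusive means flat curve with 30 to 70% viability loss, or poor fit; inactive means the rest.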

The source of these data is PubChem BioAssay AID540314 (Broad Institute, 2011).

System in the first experiment: not listed separately
The experiment in a line: cytotoxicity toward BJeHLT engineered cells – cell-based, plate reader, dry powder, set 4, counter-screen for Ras selective lethality project, dose response (AID 540314). Particulars: BJeHLT fibroblasts viability, Alamar Blue fluorescence, 48 h; at 48 µM (top of the series).
With `Cc1onc(C(=O)N2CCN(Cc3ccccc3)CC2)c1[N+](=O)[O-]`, the activity change, negative = less viable is 8.05% (inactive).

Another experiment relates to BJeHLT fibroblasts viability, Alamar Blue fluorescence, 48 h. The description is as above.
Conditions: not given
Regarding `COC(=O)c1ccc([C@@H]2c3[nH]c4ccccc4c3C[C@@H](C(=O)OC)N2C(=O)CCl)cc1`, the AC50 is 1.57 µM.
Still for that read-out and setting: next, `CCOc1ccccc1-n1c(C(C)N2CCN(C(=O)COc3ccc(Cl)cc3)CC2)nc2ccccc2c1=O` (stereo not given): 4.19 µM; `O=C(NCCNC(c1ccccc1)c1ccccc1)c1ccc([N+](=O)[O-])o1`: 4.66 µM.
Still for that read-out and setting: the same measure for `Cc1onc(C(=O)N2CCN(C(c3ccccc3)c3ccc(Cl)cc3)CC2)c1[N+](=O)[O-]` (stereo not given): 2.04 µM.
Same read-out and setting: the same measure for `Cc1onc(C(=O)N2CCN(C(c3ccc(F)cc3)c3ccc(F)cc3)CC2)c1[N+](=O)[O-]`: 2.12 µM; for `O=C(c1ccc([N+](=O)[O-])o1)N1CCN(C(c2ccc(F)cc2)c2ccc(F)cc2)CC1`: 14.8 µM.
As for `Cc1onc(C(=O)N2CCN(C(c3ccc(Cl)cc3)c3ccc(Cl)cc3)CC2)c1[N+](=O)[O-]`, the AC50 is 0.844 µM.
Still for that read-out and setting: next, `Cc1onc(C(=O)N2CCN(C(c3ccccc3)c3ccccc3)CC2)c1[N+](=O)[O-]`: 7.25 µM; `COc1ccc(C(c2ccc(OC)cc2)N2CCN(C(=O)c3ccc([N+](=O)[O-])o3)CC2)cc1`: 6.87 µM.
